# Laboratory results: US20240115654A1, “INTRAVENOUS ADMINISTRATION OF ENGINEERED ANTIMICROBIAL AMPHIPHILIC PEPTIDES” (priority 2021, published 2024)
# Where “and” joins values, the source holds several entries; their conditions need not be identical. Equal entries are not always repeated. Where two headings read alike, the source gives them in different places. Peptide text beside a SMILES is read from it.
# Conditions: for increase of AUC0-t / increase of mean AUC0-24: Cohorts 1 to 3
# [1] = Cohort 4, 0.5 mg/kg IV infusion 2 hours, Max
# [2] = Cohort 4, 0.5 mg/kg IV infusion 2 hours, Mean
# [3] = Cohort 4, 0.5 mg/kg IV infusion 2 hours, Min
# [4] = Cohort 4, 0.5 mg/kg IV, infusion 2 hours, cohort Geometric Mean
# [5] = Cohort 4, 0.5 mg/kg IV, infusion 2 hours, cohort Mean
# [6] = Cohort 4, 0.5 mg/kg IV, infusion 2 hours, cohort Median
# [7] = Cohort 5, 1 mg/kg IV infusion 4 hours, Max
# [8] = Cohort 5, 1 mg/kg IV infusion 4 hours, Min
# [9] = Phase 1 subjects, 1-hr IV infusion
# [10] = over the 5-fold increase in dose
# [11] = single 1-hour infusion 0.05 mg/kg, Geometric Mean
# [12] = single 1-hour infusion 0.05 mg/kg, Max
# [13] = single 1-hour infusion 0.05 mg/kg, Mean
# [14] = single 1-hour infusion 0.05 mg/kg, Median
# [15] = single 1-hour infusion 0.05 mg/kg, Min
# [16] = single 1-hour infusion 0.05 mg/kg, individual subjects
# 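Further: phase 1 study in human subjects given one IV dose of the peptide, enrolled in sequential ascending-dose cohorts and randomized to peptide or placebo.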
# Experimental: Administration was a single 1-hour infusion.
# Subjects were enrolled in sequential cohorts of peptide ascending dose levels and randomly assigned to receive a single IV administration of either peptide or placebo over 1 to 2 hours. […] In addition, the infusion volume was adjusted for Cohort 4 to maintain drug concentrations in line with Cohort 2
# Blood samples for PK assessment were collected at pre-dose, at the midpoint of infusion, within 1 minute after the end-of-infusion and at 0.5, 1, 2, 4, 6, 8, 12, 20, 24, 36 and 48 hours after the end-of-infusion.
# The pharmaceutical composition was stored at 2° C. to 8° C. for up to 14 days and then 15° C. to 25° C. for up to 48 hours for dosing.
# Subjects were enrolled in sequential cohorts of peptide ascending dose levels and randomly assigned to receive a single IV administration of either peptide or placebo over 1 to 2 hours.
smiles,measurement,setting,value
CC(C)[C@H](NC(=O)[C@H](Cc1c[nH]c2ccccc12)NC(=O)[C@H](CCCNC(=N)N)NC(=O)[C@H](CCCNC(=N)N)NC(=O)[C@@H](NC(=O)[C@@H](NC(=O)[C@H](CCCNC(=N)N)NC(=O)[C@@H](NC(=O)[C@@H](NC(=O)[C@H](CCCNC(=N)N)NC(=O)[C@H](CCCNC(=N)N)NC(=O)[C@H](Cc1c[nH]c2ccccc12)NC(=O)[C@@H](NC(=O)[C@H](CCCNC(=N)N)NC(=O)[C@H](CCCNC(=N)N)NC(=O)[C@@H](NC(=O)[C@H](CCCNC(=N)N)NC(=O)[C@H](CCCNC(=N)N)NC(=O)[C@@H](NC(=O)[C@H](Cc1c[nH]c2ccccc12)NC(=O)[C@H](CCCNC(=N)N)NC(=O)[C@@H](N)CCCNC(=N)N)C(C)C)C(C)C)C(C)C)C(C)C)C(C)C)C(C)C)C(C)C)C(=O)N[C@@H](CCCNC(=N)N)C(=O)N[C@@H](CCCNC(=N)N)C(N)=O [SEQ ID NO: 1] (H-RRWVRRVRRVWRRVVRVVRRWVRR-NH2),AUC(0-inf),[1],13500 ng·h/mL
same,AUC(0-t),[1],12200 ng·h/mL
same,AUCextrap,[1],12.8%
same,Cmax,[1],2310 ng/mL
same,t1/2,[1],21.1 h
same,AUCextrap,[2],8.22%
same,CL/F,[2],1.07 mL/min/kg
same,AUCextrap,"Cohort 4, 0.5 mg/kg IV infusion 2 hours, Median",8.81%
same,AUC0-24,[3],3190 ng·h/mL
same,AUC(0-inf),[3],3870 ng·h/mL
same,AUC(0-t),[3],3440 ng·h/mL
same,AUCextrap,[3],3.65%
same,CL/F,[3],0.615 mL/min/kg
same,Cmax,[3],994 ng/mL
same,t1/2,[3],11.5 h
same,"Plasma Concentration by Nominal Time from Start of Infusion, Mean","Cohort 4, 0.5 mg/kg IV, infusion 2 hours, 0.0 h, cohort mean N 6",0.00 ng/mL
same,Plasma Concentration by Nominal Time from Start of Infusion,"Cohort 4, 0.5 mg/kg IV, infusion 2 hours, 0.0 h, individual subjects",0.00 ng/mL
same,Plasma Concentration by Nominal Time from Start of Infusion,"Cohort 4, 0.5 mg/kg IV, infusion 2 hours, 4.0 h, individual subjects",457 ng/mL and 502 ng/mL and 614 ng/mL
same,Plasma Concentration by Nominal Time from Start of Infusion,"Cohort 4, 0.5 mg/kg IV, infusion 2 hours, 6.0 h, individual subjects",249 ng/mL and 448 ng/mL and 472 ng/mL
same,Plasma Concentration by Nominal Time from Start of Infusion,"Cohort 4, 0.5 mg/kg IV, infusion 2 hours, 8.0 h, individual subjects",164 ng/mL and 311 ng/mL and 377 ng/mL
same,AUCextrap,[4],7.38%
same,CL/F,[4],0.977 mL/min/kg
same,Tlast,[4],46 h
same,λz,[4],0.0443 h⁻¹
same,AUCextrap,[5],8.22%
same,CL/F,[5],1.07 mL/min/kg
same,Tlast,[5],46 h
same,λz,[5],0.0457 h⁻¹
same,AUCextrap,[6],8.81%
same,CL/F,[6],0.892 mL/min/kg
same,Tlast,[6],50 h
same,λz,[6],0.0461 h⁻¹
same,Tlast,"Cohort 4, 0.5 mg/kg IV, infusion 2 hours, individual subjects",38 h (2×) and 50 h (4×)
same,"Plasma Concentration by Nominal Time from Start of Infusion, Mean","Cohort 5, 1 mg/kg IV 4-hr infusion, 0.0 h, cohort mean",0.00 ng/mL
same,AUCextrap,"Cohort 5, 1 mg/kg IV infusion 4 hours, Geometric Mean",8.61%
same,AUC0-24,[7],28800 ng·h/mL
same,AUC(0-inf),[7],25700 ng·h/mL
same,AUC(0-t),[7],34300 ng·h/mL
same,AUCextrap,[7],17.8%
same,t1/2,[7],28.3 h
same,AUCextrap,"Cohort 5, 1 mg/kg IV infusion 4 hours, Mean",10.8%
same,AUCextrap,"Cohort 5, 1 mg/kg IV infusion 4 hours, Median",11.6%
same,AUC0-24,[8],14000 ng·h/mL
same,AUC(0-inf),[8],17400 ng·h/mL
same,AUC(0-t),[8],15800 ng·h/mL
same,AUCextrap,[8],2.43%
same,Cmax,[8],2030 ng/mL
same,t1/2,[8],9.59 h
same,AUC(0-inf),"Cohort 5, 1 mg/kg IV infusion 4 hours, individual subject",17400 ng·h/mL and 19900 ng·h/mL and 25700 ng·h/mL
same,actual dose-level exposure AUC0-24 relative to that predicted from animal data,[9],5-10 ×
same,actual dose-level exposure Cmax relative to that predicted from animal data,[9],about 4 ×
same,dose proportionality of AUC0-t,"dose range 0.05 to 0.5 mg/kg, slope not significantly different from 1",increased proportionally with dose increase
same,"intercept estimate, log AUC0-∞ versus log dose",dose range 0.05 to 1 mg/kg,6.04
same,"slope estimate, log AUC0-∞ versus log dose","dose range 0.05 to 1 mg/kg, 90% CI=0.78 to 1.03",0.91
same,increase of AUC0-t,[10],4.2 fold
same,increase of mean AUC0-24,[10],3.6 fold
same,increase of AUC0-t,over the […] increase in dose,2.2 fold
same,increase of mean AUC0-24,over the […] increase in dose,2.0 fold
same,AUCextrap,[11],8.36%
same,Tlast,[11],24 h
same,λz,[11],0.0946 h⁻¹
same,AUC0-24,[12],1610 ng·h/mL
same,AUC(0-inf),[12],1820 ng·h/mL
same,AUC(0-t),[12],1720 ng·h/mL
same,AUCextrap,[12],12.1%
same,CL/F,[12],0.595 mL/min/kg
same,Cmax,[12],341 ng/mL
same,Tlast,[12],37 h
same,t1/2,[12],8.59 h
same,λz,[12],0.105 h⁻¹
same,AUCextrap,[13],8.87%
same,Tlast,[13],25 h
same,λz,[13],0.095 h⁻¹
same,AUCextrap,[14],8.12%
same,Tlast,[14],25 h
same,λz,[14],0.0951 h⁻¹
same,AUC0-24,[15],619 ng·h/mL
same,AUC(0-t),[15],515 ng·h/mL
same,AUCextrap,[15],4.54%
same,CL/F,[15],0.457 mL/min/kg
same,Cmax,[15],170 ng/mL
same,Tlast,[15],13 h
same,t1/2,[15],6.62 h
same,λz,[15],0.0807 h⁻¹
same,AUC(0-inf),[16],1490 ng·h/mL and 1800 ng·h/mL and 1820 ng·h/mL
same,CL/F,[16],0.562 mL/min/kg and 0.463 mL/min/kg and 0.457 mL/min/kg
same,Tlast,[16],25 h (4×) and 13 h and 37 h
